# Test system: 292921-168-R-J2-PDC complex spheroid growth
# Assay: Anticancer human tumor 292921-168-R-J2-PDC patient-derived pancreatic carcinoma cell line growth inhibition [AhR]
# Conditions: second compound 3.16 µM; first compound 0.3 µM; active compounds read low
# How it was run: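 Spheroids combined tumor cells with HUVEC endothelial cells and human MSCs as stroma. AhR antagonists were paired with standard or investigational drugs, each dosed in half-log steps down from near clinical Cmax, or from 10 microM where Cmax was unknown.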
# 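Further: spheroids exposed to compounds for seven days after three days of growth.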
row,SMILES,"viability, T/C [%]"
1,CCc1c2c(nc3ccc(O)cc13)-c1cc3c(c(=O)n1C2)COC(=O)[C@]3(O)CC + Cc1cncc(-c2nc(NCCc3c[nH]c4ccccc34)c3ncn(C(C)C)c3n2)c1,3.97

# Same assay, conditions: second compound 3.16 µM; first compound 0.316 µM; active compounds read low
row,SMILES,"viability, T/C [%]"
1,COc1cc(Nc2ncc3c(n2)-c2ccc(Cl)cc2C(c2c(F)cccc2OC)=NC3)ccc1C(=O)O + Cc1cncc(-c2nc(NCCc3c[nH]c4ccccc34)c3ncn(C(C)C)c3n2)c1,42.4
2,Nc1ccccc1NC(=O)c1ccc(CNC(=O)OCc2cccnc2)cc1 + Cc1cncc(-c2nc(NCCc3c[nH]c4ccccc34)c3ncn(C(C)C)c3n2)c1,39.3
3,O=C(C=Cc1cccc(S(=O)(=O)Nc2ccccc2)c1)NO + Cc1cncc(-c2nc(NCCc3c[nH]c4ccccc34)c3ncn(C(C)C)c3n2)c1,46
4,O=C(c1cc(Cc2n[nH]c(=O)c3ccccc23)ccc1F)N1CCN(C(=O)C2CC2)CC1 + Cc1cncc(-c2nc(NCCc3c[nH]c4ccccc34)c3ncn(C(C)C)c3n2)c1,69.2

# Same assay, conditions: second compound 3.16 µM; first compound 1 µM; active compounds read low
row,SMILES,"viability, T/C [%]"
1,COc1cc(Nc2ncc3c(n2)-c2ccc(Cl)cc2C(c2c(F)cccc2OC)=NC3)ccc1C(=O)O + Cc1cncc(-c2nc(NCCc3c[nH]c4ccccc34)c3ncn(C(C)C)c3n2)c1,39.3
2,Nc1ccccc1NC(=O)c1ccc(CNC(=O)OCc2cccnc2)cc1 + Cc1cncc(-c2nc(NCCc3c[nH]c4ccccc34)c3ncn(C(C)C)c3n2)c1,30.5
3,O=C(C=Cc1cccc(S(=O)(=O)Nc2ccccc2)c1)NO + Cc1cncc(-c2nc(NCCc3c[nH]c4ccccc34)c3ncn(C(C)C)c3n2)c1,31.9
4,O=C(c1cc(Cc2n[nH]c(=O)c3ccccc23)ccc1F)N1CCN(C(=O)C2CC2)CC1 + Cc1cncc(-c2nc(NCCc3c[nH]c4ccccc34)c3ncn(C(C)C)c3n2)c1,66

# Same assay, conditions: second compound 3.16 µM; first compound 3.16 µM; active compounds read low
row,SMILES,"viability, T/C [%]"
1,COc1cc(Nc2ncc3c(n2)-c2ccc(Cl)cc2C(c2c(F)cccc2OC)=NC3)ccc1C(=O)O + Cc1cncc(-c2nc(NCCc3c[nH]c4ccccc34)c3ncn(C(C)C)c3n2)c1,35.5
2,Nc1ccccc1NC(=O)c1ccc(CNC(=O)OCc2cccnc2)cc1 + Cc1cncc(-c2nc(NCCc3c[nH]c4ccccc34)c3ncn(C(C)C)c3n2)c1,17.2
3,O=C(C=Cc1cccc(S(=O)(=O)Nc2ccccc2)c1)NO + Cc1cncc(-c2nc(NCCc3c[nH]c4ccccc34)c3ncn(C(C)C)c3n2)c1,31.7
4,O=C(c1cc(Cc2n[nH]c(=O)c3ccccc23)ccc1F)N1CCN(C(=O)C2CC2)CC1 + Cc1cncc(-c2nc(NCCc3c[nH]c4ccccc34)c3ncn(C(C)C)c3n2)c1,68.6

# Same assay, conditions: second compound 3.16 µM; first compound 10 µM; active compounds read low
row,SMILES,"viability, T/C [%]"
1,COc1cc(Nc2ncc3c(n2)-c2ccc(Cl)cc2C(c2c(F)cccc2OC)=NC3)ccc1C(=O)O + Cc1cncc(-c2nc(NCCc3c[nH]c4ccccc34)c3ncn(C(C)C)c3n2)c1,28
2,Nc1ccccc1NC(=O)c1ccc(CNC(=O)OCc2cccnc2)cc1 + Cc1cncc(-c2nc(NCCc3c[nH]c4ccccc34)c3ncn(C(C)C)c3n2)c1,10.9
3,O=C(C=Cc1cccc(S(=O)(=O)Nc2ccccc2)c1)NO + Cc1cncc(-c2nc(NCCc3c[nH]c4ccccc34)c3ncn(C(C)C)c3n2)c1,4.11
4,O=C(c1cc(Cc2n[nH]c(=O)c3ccccc23)ccc1F)N1CCN(C(=O)C2CC2)CC1 + Cc1cncc(-c2nc(NCCc3c[nH]c4ccccc34)c3ncn(C(C)C)c3n2)c1,54.2

# Same assay, conditions: second compound 10 µM; first compound 0.000949 µM; active compounds read low
row,SMILES,"viability, T/C [%]"
1,CC(C)CC(NC(=O)C(Cc1ccccc1)NC(=O)c1cnccn1)B(O)O (stereo not drawn) + Cc1cncc(-c2nc(NCCc3c[nH]c4ccccc34)c3ncn(C(C)C)c3n2)c1,43.5
2,CCc1c2c(nc3ccc(O)cc13)-c1cc3c(c(=O)n1C2)COC(=O)[C@]3(O)CC + Cc1cncc(-c2nc(NCCc3c[nH]c4ccccc34)c3ncn(C(C)C)c3n2)c1,36.7

# Same assay, conditions: second compound 10 µM; first compound 0.003 µM; active compounds read low
row,SMILES,"viability, T/C [%]"
1,CC(C)CC(NC(=O)C(Cc1ccccc1)NC(=O)c1cnccn1)B(O)O (stereo not drawn) + Cc1cncc(-c2nc(NCCc3c[nH]c4ccccc34)c3ncn(C(C)C)c3n2)c1,53.7
2,CCc1c2c(nc3ccc(O)cc13)-c1cc3c(c(=O)n1C2)COC(=O)[C@]3(O)CC + Cc1cncc(-c2nc(NCCc3c[nH]c4ccccc34)c3ncn(C(C)C)c3n2)c1,28.9

# Same assay, conditions: second compound 10 µM; first compound 0.00949 µM; active compounds read low
row,SMILES,"viability, T/C [%]"
1,CC(C)CC(NC(=O)C(Cc1ccccc1)NC(=O)c1cnccn1)B(O)O (stereo not drawn) + Cc1cncc(-c2nc(NCCc3c[nH]c4ccccc34)c3ncn(C(C)C)c3n2)c1,19.6
2,CCc1c2c(nc3ccc(O)cc13)-c1cc3c(c(=O)n1C2)COC(=O)[C@]3(O)CC + Cc1cncc(-c2nc(NCCc3c[nH]c4ccccc34)c3ncn(C(C)C)c3n2)c1,21.7

# Same assay, conditions: second compound 10 µM; first compound 0.03 µM; active compounds read low
row,SMILES,"viability, T/C [%]"
1,CC(C)CC(NC(=O)C(Cc1ccccc1)NC(=O)c1cnccn1)B(O)O (stereo not drawn) + Cc1cncc(-c2nc(NCCc3c[nH]c4ccccc34)c3ncn(C(C)C)c3n2)c1,0.58
2,CCc1c2c(nc3ccc(O)cc13)-c1cc3c(c(=O)n1C2)COC(=O)[C@]3(O)CC + Cc1cncc(-c2nc(NCCc3c[nH]c4ccccc34)c3ncn(C(C)C)c3n2)c1,14.2

# Same assay, conditions: second compound 10 µM; first compound 0.0316 µM; active compounds read low
row,SMILES,"viability, T/C [%]"
1,COc1cc(Nc2ncc3c(n2)-c2ccc(Cl)cc2C(c2c(F)cccc2OC)=NC3)ccc1C(=O)O + Cc1cncc(-c2nc(NCCc3c[nH]c4ccccc34)c3ncn(C(C)C)c3n2)c1,40.4
2,Nc1ccccc1NC(=O)c1ccc(CNC(=O)OCc2cccnc2)cc1 + Cc1cncc(-c2nc(NCCc3c[nH]c4ccccc34)c3ncn(C(C)C)c3n2)c1,27.8
3,O=C(C=Cc1cccc(S(=O)(=O)Nc2ccccc2)c1)NO + Cc1cncc(-c2nc(NCCc3c[nH]c4ccccc34)c3ncn(C(C)C)c3n2)c1,32.9
4,O=C(c1cc(Cc2n[nH]c(=O)c3ccccc23)ccc1F)N1CCN(C(=O)C2CC2)CC1 + Cc1cncc(-c2nc(NCCc3c[nH]c4ccccc34)c3ncn(C(C)C)c3n2)c1,44

# Same assay, conditions: second compound 10 µM; first compound 0.0949 µM; active compounds read low
row,SMILES,"viability, T/C [%]"
1,CC(C)CC(NC(=O)C(Cc1ccccc1)NC(=O)c1cnccn1)B(O)O (stereo not drawn) + Cc1cncc(-c2nc(NCCc3c[nH]c4ccccc34)c3ncn(C(C)C)c3n2)c1,0.63
2,CCc1c2c(nc3ccc(O)cc13)-c1cc3c(c(=O)n1C2)COC(=O)[C@]3(O)CC + Cc1cncc(-c2nc(NCCc3c[nH]c4ccccc34)c3ncn(C(C)C)c3n2)c1,9.49

# Same assay, conditions: second compound 10 µM; first compound 0.1 µM; active compounds read low
row,SMILES,"viability, T/C [%]"
1,COc1cc(Nc2ncc3c(n2)-c2ccc(Cl)cc2C(c2c(F)cccc2OC)=NC3)ccc1C(=O)O + Cc1cncc(-c2nc(NCCc3c[nH]c4ccccc34)c3ncn(C(C)C)c3n2)c1,35
2,Nc1ccccc1NC(=O)c1ccc(CNC(=O)OCc2cccnc2)cc1 + Cc1cncc(-c2nc(NCCc3c[nH]c4ccccc34)c3ncn(C(C)C)c3n2)c1,27.9
3,O=C(C=Cc1cccc(S(=O)(=O)Nc2ccccc2)c1)NO + Cc1cncc(-c2nc(NCCc3c[nH]c4ccccc34)c3ncn(C(C)C)c3n2)c1,34.2
4,O=C(c1cc(Cc2n[nH]c(=O)c3ccccc23)ccc1F)N1CCN(C(=O)C2CC2)CC1 + Cc1cncc(-c2nc(NCCc3c[nH]c4ccccc34)c3ncn(C(C)C)c3n2)c1,47

# Same assay, conditions: second compound 10 µM; first compound 0.3 µM; active compounds read low
row,SMILES,"viability, T/C [%]"
1,CC(C)CC(NC(=O)C(Cc1ccccc1)NC(=O)c1cnccn1)B(O)O (stereo not drawn) + Cc1cncc(-c2nc(NCCc3c[nH]c4ccccc34)c3ncn(C(C)C)c3n2)c1,0.51
2,CCc1c2c(nc3ccc(O)cc13)-c1cc3c(c(=O)n1C2)COC(=O)[C@]3(O)CC + Cc1cncc(-c2nc(NCCc3c[nH]c4ccccc34)c3ncn(C(C)C)c3n2)c1,6.16

# Same assay, conditions: second compound 10 µM; first compound 0.316 µM; active compounds read low
row,SMILES,"viability, T/C [%]"
1,COc1cc(Nc2ncc3c(n2)-c2ccc(Cl)cc2C(c2c(F)cccc2OC)=NC3)ccc1C(=O)O + Cc1cncc(-c2nc(NCCc3c[nH]c4ccccc34)c3ncn(C(C)C)c3n2)c1,38.5
2,Nc1ccccc1NC(=O)c1ccc(CNC(=O)OCc2cccnc2)cc1 + Cc1cncc(-c2nc(NCCc3c[nH]c4ccccc34)c3ncn(C(C)C)c3n2)c1,22.6
3,O=C(C=Cc1cccc(S(=O)(=O)Nc2ccccc2)c1)NO + Cc1cncc(-c2nc(NCCc3c[nH]c4ccccc34)c3ncn(C(C)C)c3n2)c1,30.1
4,O=C(c1cc(Cc2n[nH]c(=O)c3ccccc23)ccc1F)N1CCN(C(=O)C2CC2)CC1 + Cc1cncc(-c2nc(NCCc3c[nH]c4ccccc34)c3ncn(C(C)C)c3n2)c1,44.9

# Same assay, conditions: second compound 10 µM; first compound 1 µM; active compounds read low
row,SMILES,"viability, T/C [%]"
1,COc1cc(Nc2ncc3c(n2)-c2ccc(Cl)cc2C(c2c(F)cccc2OC)=NC3)ccc1C(=O)O + Cc1cncc(-c2nc(NCCc3c[nH]c4ccccc34)c3ncn(C(C)C)c3n2)c1,35.4
2,Nc1ccccc1NC(=O)c1ccc(CNC(=O)OCc2cccnc2)cc1 + Cc1cncc(-c2nc(NCCc3c[nH]c4ccccc34)c3ncn(C(C)C)c3n2)c1,22.4
3,O=C(C=Cc1cccc(S(=O)(=O)Nc2ccccc2)c1)NO + Cc1cncc(-c2nc(NCCc3c[nH]c4ccccc34)c3ncn(C(C)C)c3n2)c1,29
4,O=C(c1cc(Cc2n[nH]c(=O)c3ccccc23)ccc1F)N1CCN(C(=O)C2CC2)CC1 + Cc1cncc(-c2nc(NCCc3c[nH]c4ccccc34)c3ncn(C(C)C)c3n2)c1,44.5

# Same assay, conditions: second compound 10 µM; first compound 3.16 µM; active compounds read low
row,SMILES,"viability, T/C [%]"
1,COc1cc(Nc2ncc3c(n2)-c2ccc(Cl)cc2C(c2c(F)cccc2OC)=NC3)ccc1C(=O)O + Cc1cncc(-c2nc(NCCc3c[nH]c4ccccc34)c3ncn(C(C)C)c3n2)c1,32.4
2,Nc1ccccc1NC(=O)c1ccc(CNC(=O)OCc2cccnc2)cc1 + Cc1cncc(-c2nc(NCCc3c[nH]c4ccccc34)c3ncn(C(C)C)c3n2)c1,15.4
3,O=C(C=Cc1cccc(S(=O)(=O)Nc2ccccc2)c1)NO + Cc1cncc(-c2nc(NCCc3c[nH]c4ccccc34)c3ncn(C(C)C)c3n2)c1,26.6
4,O=C(c1cc(Cc2n[nH]c(=O)c3ccccc23)ccc1F)N1CCN(C(=O)C2CC2)CC1 + Cc1cncc(-c2nc(NCCc3c[nH]c4ccccc34)c3ncn(C(C)C)c3n2)c1,43.4

# Same assay, conditions: second compound 10 µM; first compound 10 µM; active compounds read low
row,SMILES,"viability, T/C [%]"
1,COc1cc(Nc2ncc3c(n2)-c2ccc(Cl)cc2C(c2c(F)cccc2OC)=NC3)ccc1C(=O)O + Cc1cncc(-c2nc(NCCc3c[nH]c4ccccc34)c3ncn(C(C)C)c3n2)c1,26.3
2,Nc1ccccc1NC(=O)c1ccc(CNC(=O)OCc2cccnc2)cc1 + Cc1cncc(-c2nc(NCCc3c[nH]c4ccccc34)c3ncn(C(C)C)c3n2)c1,7.52
3,O=C(C=Cc1cccc(S(=O)(=O)Nc2ccccc2)c1)NO + Cc1cncc(-c2nc(NCCc3c[nH]c4ccccc34)c3ncn(C(C)C)c3n2)c1,6.63
4,O=C(c1cc(Cc2n[nH]c(=O)c3ccccc23)ccc1F)N1CCN(C(=O)C2CC2)CC1 + Cc1cncc(-c2nc(NCCc3c[nH]c4ccccc34)c3ncn(C(C)C)c3n2)c1,37.2
